Assay results as given in patent US20090143335A1, “MODIFIED ABSORPTION FORMULATION OF GABOXADOL” (H. LUNDBECK A/S, priority 2007, published 2009).

Assay: Pharmacokinetics of gaboxadol in beagle dogs, IV or PO, with or without co-administered tryptophan
Type: in vivo
Details: dog; for bioavailability: Fa (bioavailability)
Procedure: Prior to commencement of the studies the protocols were approved by the Animal Welfare Committee, appointed by the Danish Ministry of Justice and all animal procedures were carried out in compliance with EC Directive 86/609/EEC, the Danish law regulating experiments on animals and NIH Guidelines for the Care and Use of Laboratory Animals. 6 full-grown male beagle dogs (body weight 15.9-21.7 kg) were selected and allocated into a roman quadrant design and assigned to receive all 6 formulations of gaboxadol hydrochloride randomly during 6 weeks. The dogs were fasted 20-24 hours before the initiation of the experiment and fed again 10 hours after the administration. The gaboxadol dose was given either as an intravenous injection (1.0 ml/kg) or as an oral solution given by gavage (5.0 ml/kg) directly into the stomach using a soft tube. All dogs received 2.5 mg/kg gaboxadol. In addition to gaboxadol, the oral formulations contained 0, 2.5, 10.0, 50.0 or 150.0 mg/kg of tryptophan to ensure simultaneous co-administration of the two compounds. All solutions were adjusted to a pH of 5.2 and osmolarity was checked with a Vapro vapour pressure osmometer (model 5520, Wescor Inc. Logan, Utah, USA), the intravenous solutions were adjusted to isoosmolarity with glucose. Blood samples of 2.0 ml were taken from the vena cephalica by individual vein puncture and collected into Eppendorf tubes containing 200 IE heparin as anticoagulant. Samples were collected before administration of gaboxadol and after 5, 15, 30, 60, 90 minutes and 2, 3, 4, 6, 8 and 10 hours after gaboxadol administration. The plasma was harvested immediately by centrifugation for 15 minutes at 2200 g and 4-8° C. and stored at −80° C. until further analysis. After each day of gaboxadol dosing the animals had 6 days of washout.
The pharmacokinetics (PK) was evaluated in WinNonlin. Plasma concentrations curves of the animals dosed intravenously were fitted to a 2-compartment model whereas the data from animals dosed orally were analysed in a non-compartment model. Statistical analysis was done in Sigma Stat.
Gaboxadol was extracted from plasma and HBSS^+ samples by liquid extraction. 100 μl HBSS^+ (80 μl purified water were added to the 20 μl samples) or 100 μl plasma samples were mixed with 25 μl intern standard (d4-gaboxadol) and 25 μl purified water. Protein precipitation was carried out by addition of 400 μl cold acetonitrile. After centrifugation at 10,000 g in 15 minutes, 425 μl supernatant was transferred to glass tubes and evaporated to dryness under nitrogen at 45° C. The samples were re-solved in 80 μl methanol/acetonitrile (30:70), whirl mixed for 10 minutes and centrifuged in 3 minutes at 3000 rpm, before transferal to medium well plates and placed at 10° C. in the autosampler. Gaboxadol concentration in the extracted samples was subsequently quantified by hydrophilic interaction chromatography (HILIC-chromatography) followed by MS/MS detection. The LC system comprised of an Agilent 1100 series pump and degasser, a CTC Analytics interface transferred data to the computer and a Peltier Thermostat and HTC Pal autosampler handled the samples. An Asahipak amino column, (NH2P-50, 150×2 mm) from Phenomenex was used for the chromatographic separation with a mobile phase of 20.0 mM ammoniumacetat pH=4:acetonitrile (30:70) and a flow rate of 0.2 ml/min. 20 μL samples were injected onto the column, which was kept at room temperature. The total runtime was 10 minutes with the first 5 minutes of elution let to waste. The elution time of gaboxadol on the column was approximately 8 minutes. The MS/MS system used consisted of a Sciex API 4000 MS/MS detector with a Turbo Ion Spray and Turbo V source (Applied Biosystems). The detection was performed in negative ionization mode where gaboxadol (precursor 139.1 Da, product 110.1 Da) and d4-gaboxadol (precursor 143.0, product 112.2 Da) were measured by multiple-reaction-monitoring (MRM). […]

[1] = male, beagle, in vivo, po, 2.5 mg/kg
[2] = male, beagle, in vivo, po, 10 mg/kg
[3] = male, beagle, in vivo, po, 50 mg/kg
[4] = male, beagle, in vivo, po, 150 mg/kg

SMILES: Oc1noc2c1CCNC2 [gaboxadol, 4,5,6,7-tetrahydroisoxazolo [5,4-c]pyridine-3-ol]
- decrease of maximal gaboxadol plasma concentration, Cmax, by tryptophan coadministration (PO 2.5 mg/kg gaboxadol, presence vs absence of 150 mg/kg tryptophan, p<0.001): 57%
- ke (group A, IV 2.5 mg gaboxadol/kg, tryptophan 0 mg/kg): 1.02 ± 0.14 h⁻¹
- ke (group B, PO 2.5 mg gaboxadol/kg, tryptophan 0 mg/kg): 0.46 ± 0.02 h⁻¹
- ke (group C, PO 2.5 mg gaboxadol/kg, tryptophan 2.5 mg/kg): 0.50 ± 0.03 h⁻¹
- ke (group D, PO 2.5 mg gaboxadol/kg, tryptophan 10 mg/kg): 0.44 ± 0.03 h⁻¹
- ke (group E, PO 2.5 mg gaboxadol/kg, tryptophan 50 mg/kg): 0.50 ± 0.03 h⁻¹
- ke (group F, PO 2.5 mg gaboxadol/kg, tryptophan 150 mg/kg): 0.48 ± 0.07 h⁻¹
- effect of tryptophan coadministration on elimination rate constants (ke) and clearance (CL) of gaboxadol (in vivo, po): did not change
- clearance (male, beagle, in vivo, iv, 2.5 mg/kg): 7.6 mL/min/kg
- AUC (male, beagle, in vivo, iv, 2.5 mg/kg, AUC): 5620 ± 377 ng·h/mL
- Cmax (male, beagle, in vivo, iv, 2.5 mg/kg, Cmax): 5490 ± 404 ng/mL
- AUC [1]: 4760 ± 350 ng·h/mL
- Cmax [1]: 2473 ± 178 ng/mL
- Fa (bioavailability) [1]: 86.1%
- Tmax [1]: 21 ± 7.8 min
- AUC (male, beagle, in vivo, po, 2.5 mg/kg, AUC): 4720 ± 248 ng·h/mL
- Cmax (male, beagle, in vivo, po, 2.5 mg/kg, Cmax): 2500 ng/mL
- bioavailability [1]: 85.3 ± 5.7%
- Tmax (male, beagle, in vivo, po, 2.5 mg/kg, Tmax): 27.6 min
- CL [2]: 645 ± 59 mL/h/kg
- AUC (male, beagle, in vivo, po, 10 mg/kg, AUC): 4030 ± 339 ng·h/mL
- Cmax (male, beagle, in vivo, po, 10 mg/kg, Cmax): 1870 ± 114 ng/mL
- bioavailability [2]: 75%
- Tmax (male, beagle, in vivo, po, 10 mg/kg, Tmax): 32.4 ± 9 min
- CL [3]: 589 ± 26 mL/h/kg
- AUC (male, beagle, in vivo, po, 50 mg/kg, AUC): 4290 ± 211 ng·h/mL
- Cmax (male, beagle, in vivo, po, 50 mg/kg, Cmax): 1660 ± 37 ng/mL
- bioavailability [3]: 78.2 ± 6.3%
- Tmax (male, beagle, in vivo, po, 50 mg/kg, Tmax): 27.6 ± 7.2 min
- CL [4]: 700 ± 152 mL/h/kg
- AUC (male, beagle, in vivo, po, 150 mg/kg, AUC): 4400 ± 801 ng·h/mL
- Cmax (male, beagle, in vivo, po, 150 mg/kg, Cmax): 1420 ng/mL
- bioavailability [4]: 79.7 ± 14.5%
- Tmax (male, beagle, in vivo, po, 150 mg/kg, Tmax): 90 min
